What is called Papp is the rate of passage across a membrane or cell layer, normalised by area and donor concentration.

“And” between values parts separate entries of the source, which are not always exact repeats. Identical values can stand only once. Like-named read-outs stand apart in the source and are kept apart here.

The record followed here is patent US20100028447A1, “Intranasal, Buccal, And Sublingual Administration Of Metanicotine Analogs” (TARGACEPT, INC., priority 2007, published 2010).

The nature of data set [1]: Permeation across cultured human respiratory epithelium (EpiAir tissue), apical-to-basolateral Papp. The conditions noted are these: human, pH 7.4, Papp. An excerpt: An in vitro model of MatTek EpiAir® tissue was used for the permeability assessment of the test articles and control compounds. The EpiAir® culture consists of cells that have been cultured to form a pseudo-stratified, highly differentiated model closely resembling the epithelial tissue of the human respiratory tract. The histological cross-sections of the cultured tissue reveal a pseudo-stratified mucociliary phenotype.
EpiAir® tissues plated in 12 well plates were pre-equilibrated for the assay by culturing them for 24 hours at 37° C. with 5% CO2 in a humidified incubator. On the day of the assay, the cultures were washed two times with Dulbeccos' Phosphate Buffered Saline (DPBS buffer) at pH 7.4, and then dosed with donor and receiver buffer applied to the apical and basolateral surfaces of the culture, respectively. The receiver buffer consisted of DPBS, at pH 7.4. The donor solution consisted of DPBS buffer containing the appropriate compounds as specified in Table 1. All treatments were performed in triplicate. The receiver buffer was sampled at 15, 30, 60, and 120 minutes, and the donor buffer was sampled at 120 minutes.
The Lucifer Yellow concentration in the receiver samples was measured using a FluoStar fluorescence plate reader (BMG Laboratories, Durham, N.C.).
The apparent permeability coefficient, Papp, was calculated as follows: […]
where: dCr/dt is the slope of the cumulative concentration in the receiver compartment versus time; Vr is the volume of the receiver compartment; A is the surface area of epithelium available for permeation; and Co is the dosing solution concentration.

The nature of data set [2]: Brain-to-plasma ratio after oral gavage or intranasal administration (Example 4). It counts as in vivo, Sprague-Dawley rats. The method, then:
Eight treatment groups of nine rats each were used (see Study Design, Table 6). […] The animals were housed up to three per cage and identified by cage labels. A single room was used for this study. […] Food was withheld from the animals for a minimum of 12 hours before the study and during the study, and was returned at 4 hours post-dose. Water was supplied ad libitum during the study.
All dosing solutions were prepared in isotonic PBS (phosphate buffered saline) buffer at pH 7.4. […] For intranasal dosing, the animals were anesthetized with CO2 prior to dosing, and the solution was administered in a droplet from a pipette.
For each treatment group, brain and plasma samples were collected at 10, 30 and 60 minutes post-dose. Blood samples were placed in heparinized tubles and spun at 13,000 rpm for 5 minutes. The plasma was placed in polyethylene tubes and frozen (−60 to −80° C.). Brain samples were also placed in chilled tubes and frozen (−60 to −80° C.). Samples remained chilled during subsequent processing.
Brain samples were thawed and weighed. […] After homogenation, the volume of each sample was recorded and the samples were frozen at −80° C. until analysis.
Plastic tubes were used for all steps. Standards were prepared at concentrations of 1000, 500, 250, 100, 50, 10, 5 and 1 ng/mL by serial dilution. Quality control samples were also prepared at 500, 100, and 5 ng/mL. […] Brain standards and quality control samples were treated identically to the test compound samples.
Brain samples (200 μL) were loaded onto a 96 well plate and then transferred to 400 μL of pure acetonitrile (containing 10 ng/mL nicotine as an internal standard) in a Sirocco Protein Precipitation Plate (Waters Corporation). The resulting suspensions were mixed and then filtered into a clean 96-well collection plate using a vacuum. A 200 μL aliquot of the resulting filtrate was then transferred to plastic HPLC vials for analysis.
Plasma samples (50 μL) were loaded onto a 96 well plate and then transferred to 150 μL of pure acetonitrile (containing 10 ng/mL nicotine as an internal standard) in a Sirocco Protein Precipitation Plate (Waters Corporation). The resulting suspensions were mixed and then filtered into a clean 96-well collection plate using a vacuum. A 80 μL aliquot of the resulting filtrate was then transferred to plastic HPLC vials for analysis.
Brain samples (200 μL) were loaded onto a 96 well plate and then transferred to 400 μL of acetonitrile containing internal standard (100 ng/mL Pindolol) in a Sirocco Protein Precipitation Plate (Waters Corporation). The resulting suspensions were mixed and then filtered into a clean 96-well collection plate using a vacuum. The resulting filtrates were then evaporated to dryness under nitrogen at 37° C. The resulting residues were reconstituted with 200 μL of water. The samples were then mixed, centrifuged, and transferred (100 μL) to plastic HPLC vials for analysis.
Brain samples (50 μL) were loaded onto a 96 well plate and then transferred to 150 μL of acetonitrile containing internal standard (100 ng/mL Pindolol) in a Sirocco Protein Precipitation Plate (Waters Corporation). The resulting suspensions were mixed and then filtered into a clean 96-well collection plate using a vacuum. The resulting filtrates were then evaporated to dryness under nitrogen at 37° C. The resulting residues were reconstituted with 100 μL of water. The samples were then mixed, centrifuged, and transferred (100 μL) to plastic HPLC vials for analysis.

Setting [3] is: Sprague-Dawley, rat, in vivo, 10 mg/kg, Brain-to-Plasma Ratio.
The mark [4] stands for this setting: Sprague-Dawley, rat, in vivo, 10 mg/kg, Mean Ratio (brain-to-plasma).
[5] abbreviates: Sprague-Dawley, rat, in vivo, intranasal, 1 mg/kg, Average brain-to-plasma ratio.
[6] abbreviates: Sprague-Dawley, rat, in vivo, po, 5 mg/kg, Average brain-to-plasma ratio.

Turning to `CNCC/C=C/c1cccnc1` [Compound B, N-methyl-(4-pyridin-3-yl-but-3-enyl)-amine], the Papp at 120 min was 18.3 ± 0.28 ×10⁻⁶ cm/s in data set [1] (Treatment 1: Compound B assayed with controls, Average ± STD); 18.5 ×10⁻⁶ cm/s in data set [1] (Treatment 1: Compound B assayed with controls, Rep 1); 18 ×10⁻⁶ cm/s in data set [1] (Treatment 1: Compound B assayed with controls, Rep 2); 18.4 ×10⁻⁶ cm/s in data set [1] (Treatment 1: Compound B assayed with controls, Rep 3); 25.4 ± 0.41 ×10⁻⁶ cm/s in data set [1] (Treatment 2: Compound B assayed with controls + MAO inhibitor Pargyline, Average ± STD); 25.1 ×10⁻⁶ cm/s in data set [1] (Treatment 2: Compound B assayed with controls + MAO inhibitor Pargyline, Rep 1). For the same molecule, the Papp at 120 min in data set [1] (Treatment 2: Compound B assayed with controls + MAO inhibitor Pargyline, Rep 2) turned out to be 25.9 ×10⁻⁶ cm/s; in data set [1] (Treatment 2: Compound B assayed with controls + MAO inhibitor Pargyline, Rep 3) it was 25.2 ×10⁻⁶ cm/s. For the same molecule, the Kp at […] in data set [2] (Sprague-Dawley, rat, in vivo, inhaled or intranasal, 1 mg/kg, intranasal 1 mg/kg with pargyline, 10 minute time point, two animals, read-out: Brain-to-plasma ratio (average value)) worked out at 0.89; in data set [2] (Sprague-Dawley, rat, in vivo, inhaled or intranasal, 1 mg/kg, intranasal 1 mg/kg without pargyline, 10 minute time point, two animals, read-out: Brain-to-plasma ratio (average value)), 1.09. The Kp at 0.5 h in data set [2] (Sprague-Dawley, rat, in vivo, inhaled or intranasal, 1 mg/kg, intranasal 1 mg/kg with pargyline, 30 minute time point, one animal, read-out: Brain-to-plasma ratio) was 0.21. Further, the Kp in data set [2] (Sprague-Dawley, rat, in vivo, po, 10 mg/kg, oral gavage administration, two animals, both at the minute time point) amounted to 0.22.
Consider `CN[C@@H](C)C/C=C/c1cncc(OC)c1` [Compound A, (2S)-(4E)-N-methyl-5-(3-(5-methoxypyridin)yl)-4-penten-2-amine], for which the Papp at 120 min in data set [1] came out at 25.1 ×10⁻⁶ cm/s. Besides, the “Plasma Conc.” value is 216 ng/mL and 278 ng/mL in data set [2] (Group 1, OG, 10 mg/kg, 30 min, 10 mg/kg); 239 ng/mL and 234 ng/mL in data set [2] (Group 1, OG, 10 mg/kg, 60 min, 10 mg/kg); 327 ng/mL and 249 ng/mL in data set [2] (Group 3, OG, 10 mg/kg, 10 min, 10 mg/kg). The Kp at 0.5 h in data set [2] (setting [3]) worked out at 0.044; in data set [2] (setting [4]), 0.042; in data set [2] (Sprague-Dawley, rat, in vivo, intranasal, 0.1 mg/kg, Brain-to-plasma ratio), 5.52; in data set [2] (setting [5]), 4.28; in data set [2] (setting [6]), 2.37. Moreover, the Kp at 1 h in data set [2] (setting [3]) is 0.038; in data set [2] (setting [4]), 0.032; in data set [2] (setting [5]), 6.4; in data set [2] (setting [6]), 3.38. For the same molecule, the concentration at 30 min in data set [2] (Sprague-Dawley, rat, in vivo, 10 mg/kg, Group 1, OG, 10 mg/kg, 30 min, read-out: Brain Conc.) was 2.04 ng/mL and 9.6 ng/g; in data set [2] (Sprague-Dawley, rat, in vivo, 10 mg/kg, Group 1, OG, 10 mg/kg, 30 min, read-out: Plasma Conc.), 174 ng/mL. The concentration at 60 min was 1.26 ng/mL and 6.08 ng/g in data set [2] (Sprague-Dawley, rat, in vivo, 10 mg/kg, Group 1, OG, 10 mg/kg, 60 min, read-out: Brain Conc.); 158 ng/mL in data set [2] (Sprague-Dawley, rat, in vivo, 10 mg/kg, Group 1, OG, 10 mg/kg, 60 min, read-out: Plasma Conc.); 2.81 ng/mL and 13.9 ng/g in data set [2] (Sprague-Dawley, rat, in vivo, 10 mg/kg, Group 2, OG, 10 mg/kg, 60 min, read-out: Brain Conc.). In addition, in data set [2] (Sprague-Dawley, rat, in vivo, 10 mg/kg, Group 3, OG, 10 mg/kg, 10 min, read-out: Plasma Conc.), the concentration at 10 min worked out at 313 ng/mL. In addition, the Kp at […] in data set [2] (setting [4]) was 0.039; in data set [2] (Sprague-Dawley, rat, in vivo, intranasal, 0.1 mg/kg, Brain-to-plasma ratio (average value)), 2.21; in data set [2] (setting [5]), 1.58; in data set [2] (setting [6]), 1.75. For the same molecule, in data set [2] (by both intranasal and oral administration), the “Exposures in plasma and brain, Compound A compared with Compound B” value is recorded as “much greater”. Besides, the “Brain-to-plasma ratios, intranasal as opposed to oral gavage administration” value in data set [2] (rat, in vivo) is recorded as “generally greater”.
